Laboratory results taken from publication PMC3137752 (Alcohol (Fayetteville, N.Y.), 2010).

Assays:
α6-100R-β3γ2 (α6β3γ2s) [1] = biological target: α6-100R-β3γ2 (α6β3γ2s) (Rattus norvegicus, UniProt P18508+P30191); test: radioligand association/dissociation kinetics, filtration; assay type: binding
α6-100R-β3γ2 (α6β3γ2s) [2] = biological target: α6-100R-β3γ2 (α6β3γ2s) (Rattus norvegicus, UniProt P18508+P30191, P30191:R119Q); test: as above; assay type: binding
Chain of α6-100R-β3γ2 (α6β3γ2s) (Rattus norvegicus, UniProt P18508+P30191, P30191:R119Q) (P30191 20-453 R119Q): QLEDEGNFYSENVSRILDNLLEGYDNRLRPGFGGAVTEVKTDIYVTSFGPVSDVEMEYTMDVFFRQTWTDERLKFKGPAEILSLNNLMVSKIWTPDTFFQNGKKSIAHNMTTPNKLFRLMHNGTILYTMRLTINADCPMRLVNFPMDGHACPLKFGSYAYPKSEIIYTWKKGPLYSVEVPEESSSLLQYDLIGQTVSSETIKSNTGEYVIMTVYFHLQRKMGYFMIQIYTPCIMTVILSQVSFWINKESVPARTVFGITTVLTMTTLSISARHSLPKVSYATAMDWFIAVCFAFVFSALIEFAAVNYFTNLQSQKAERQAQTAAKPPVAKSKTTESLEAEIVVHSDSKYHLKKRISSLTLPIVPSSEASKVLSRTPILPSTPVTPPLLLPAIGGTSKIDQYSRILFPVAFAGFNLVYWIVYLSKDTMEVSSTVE
Chain of α6-100R-β3γ2 (α6β3γ2s) (Rattus norvegicus, UniProt P18508+P30191, P30191:R119Q) (P18508 39-466): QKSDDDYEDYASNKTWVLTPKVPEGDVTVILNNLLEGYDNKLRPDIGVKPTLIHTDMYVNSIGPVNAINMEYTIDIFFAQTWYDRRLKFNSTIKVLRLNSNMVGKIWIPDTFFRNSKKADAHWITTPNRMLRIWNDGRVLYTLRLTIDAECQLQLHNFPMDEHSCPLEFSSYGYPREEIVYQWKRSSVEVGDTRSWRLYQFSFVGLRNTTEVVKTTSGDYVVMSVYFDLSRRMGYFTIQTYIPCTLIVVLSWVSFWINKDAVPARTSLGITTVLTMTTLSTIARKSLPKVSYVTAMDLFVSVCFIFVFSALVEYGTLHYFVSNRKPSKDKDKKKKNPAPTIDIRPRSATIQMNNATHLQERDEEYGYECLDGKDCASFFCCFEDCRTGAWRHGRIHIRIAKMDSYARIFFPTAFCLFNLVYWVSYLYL
Chain of α6-100R-β3γ2 (α6β3γ2s) (Rattus norvegicus, UniProt P18508+P30191, P30191:R119Q) (P63079 26-473 partner): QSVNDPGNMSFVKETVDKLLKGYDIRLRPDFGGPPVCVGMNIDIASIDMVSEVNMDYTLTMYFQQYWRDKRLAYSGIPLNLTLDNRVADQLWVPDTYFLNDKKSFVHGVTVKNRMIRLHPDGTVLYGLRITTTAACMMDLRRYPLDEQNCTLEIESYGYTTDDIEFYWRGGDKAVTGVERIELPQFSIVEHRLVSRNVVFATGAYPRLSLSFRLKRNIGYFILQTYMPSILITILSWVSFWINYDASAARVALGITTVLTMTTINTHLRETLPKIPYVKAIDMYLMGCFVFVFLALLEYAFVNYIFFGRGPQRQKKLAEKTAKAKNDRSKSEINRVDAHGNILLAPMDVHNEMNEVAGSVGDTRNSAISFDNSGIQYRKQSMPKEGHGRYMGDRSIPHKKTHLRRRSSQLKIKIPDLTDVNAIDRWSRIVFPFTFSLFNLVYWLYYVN

Chain of α6-100R-β3γ2 (α6β3γ2s) (Rattus norvegicus, UniProt P18508+P30191) (P30191 20-453): as the sequence (P30191 20-453 R119Q) above, with Q100R counted along it
Chain of α6-100R-β3γ2 (α6β3γ2s) (Rattus norvegicus, UniProt P18508+P30191) (P18508 39-466): as the sequence (P18508 39-466) above
Chain of α6-100R-β3γ2 (α6β3γ2s) (Rattus norvegicus, UniProt P18508+P30191) (P63079 26-473 partner): as the sequence (P63079 26-473 partner) above

Structure (SMILES): CCOC(=O)c1ncn2c1CN(C)C(=O)c1cc(N=[N+]=[N-])ccc1-2 [[^3H]Ro 15-4513]
- Kd (α6-100R-β3γ2 (α6β3γ2s) [1]): 2.4 ± 0.4 nM
- Kd (α6-100R-β3γ2 (α6β3γ2s) [2]): 1 ± 0.1 nM
